Measurements from patent USRE39591E1, “6-O-substituted ketolides having antibacterial activity” (Abbott Laboratories, priority 1996, dated 2007).
Converted amounts (≈) assume the structure as drawn.

Tested on: up to 32 different microorganisms
Assay: in vitro antibacterial activity (MIC), agar dilution on Brain Heart Infusion (BHI) agar with Steers replicator
Type: cell-based
Details: unit assumed
Experimental: Representative compounds of the present invention were assayed in vitro for antibacterial activity as follows: Twelve petri dishes containing successive aqueous dilutions of the test compound mixed with 10 mL of sterilized Brain Heart Infusion (BHI) agar (Difco 0148-01-5) were prepared. Each plate was inoculated with 1:100 (or 1:10 for slow-growing strains, such as Micrococcus and Streptococcus) dilutions of up to 32 different microorganisms, using a Steers replicator block. The inoculated plates were incubated at 35°-37° C. for 20 to 24 hours. In addition, a control plate, using BHI agar containing no test compound, was prepared and incubated at the beginning and end of each test.
An additional plate containing a compound having known susceptibility patterns for the organisms being tested and belonging to the same antibiotic class as the test compound was also prepared and incubated as a further control, as well as to provide test-to-test comparability. Erythromycin A was used for this purpose.
After incubation, each plate was visually inspected. The minimum inhibitory concentration (MIC) was defined as the lowest concentration of drug yielding no growth, a slight haze, or sparsely isolated colonies on the inoculum spot as compared to the growth control.

Row | SMILES | MIC (organism code AA) [µg/mL] | MIC (organism code CC) [µg/mL] | MIC (organism code DD) [µg/mL] | MIC (organism code EE) [µg/mL] | MIC (organism code FF) [µg/mL] | MIC (organism code GG) [µg/mL] | MIC (organism code HH) [µg/mL] | MIC (organism code II) [µg/mL] | MIC (organism code JJ) [µg/mL] | MIC (organism code KK) [µg/mL] | MIC (organism code LL) [µg/mL] | MIC (organism code MM) [µg/mL] | MIC (organism code NN) [µg/mL] | MIC (organism code OO) [µg/mL] | MIC (organism code PP) [µg/mL] | MIC (organism code QQ) [µg/mL] | MIC (organism code RR) [µg/mL] | MIC (organism code SS) [µg/mL] | MIC (organism code TT) [µg/mL] | MIC (organism code UU) [µg/mL] | other results
1 | CCC1OC(=O)C(C)C(=O)C(C)C(OC2OC(C)CC(N(C)C)C2O)C(C)(OCC=Cc2cnc3cccc([N+](=O)[O-])c3c2)CC(C)C(=O)C(C)C2NC(=O)OC12C (centres unmarked) [Example 210, R is —CH2CH═CH-(5-nitro-3-quinolyl)] | 0.1 (≈ 0.123 µM) | > 100 | 0.1 (≈ 0.123 µM) | 0.1 (≈ 0.123 µM) | 0.1 (≈ 0.123 µM) | > 100 | 0.1 (≈ 0.123 µM) | 0.02 (≈ 0.0247 µM) | ≤ 0.005 | ≤ 0.005 | 0.01 (≈ 0.0123 µM) | 0.78 (≈ 0.962 µM) | 0.2 (≈ 0.247 µM) | 0.02 (≈ 0.0247 µM) | 0.2 (≈ 0.247 µM) | 50 (≈ 61.7 µM) | 0.2 (≈ 0.247 µM) | > 100 | > 100 | 0.78 (≈ 0.962 µM) | MIC (organism code VV): 0.02 µg/mL (≈ 0.0247 µM); MIC (organism code WW): 3 µg/mL (≈ 3.7 µM); MIC (organism code XX): 0.015 µg/mL (≈ 0.0185 µM); MIC (organism code YY): ≤ 0.004 µg/mL; MIC (organism code ZZ): 4 µg/mL (≈ 4.93 µM); MIC (organism code ZZA): 0.25 µg/mL (≈ 0.308 µM)
2 | CCC1OC(=O)C(C)C(=O)C(C)C(OC2OC(C)CC(N(C)C)C2O)C(C)(OCC=Cc2cnc3c([N+](=O)[O-])cccc3c2)CC(C)C(=O)C(C)C2NC(=O)OC12C (centres unmarked) [Example 211, R is —CH2CH═CH-(8-nitro-3-quinolyl)] | 0.05 (≈ 0.0617 µM) | > 100 | 0.1 (≈ 0.123 µM) | 0.1 (≈ 0.123 µM) | 0.1 (≈ 0.123 µM) | > 100 | 0.05 (≈ 0.0617 µM) | 0.01 (≈ 0.0123 µM) | 0.01 (≈ 0.0123 µM) | 0.01 (≈ 0.0123 µM) | 0.01 (≈ 0.0123 µM) | 3.1 (≈ 3.82 µM) | 0.1 (≈ 0.123 µM) | 0.01 (≈ 0.0123 µM) | 0.1 (≈ 0.123 µM) | 25 (≈ 30.8 µM) | 0.2 (≈ 0.247 µM) | 50 (≈ 61.7 µM) | > 100 | 0.39 (≈ 0.481 µM) | MIC (organism code BB): 0.05 µg/mL (≈ 0.0617 µM); MIC (organism code VV): 0.05 µg/mL (≈ 0.0617 µM); MIC (organism code WW): 2 µg/mL (≈ 2.47 µM); MIC (organism code XX): ≤ 0.004 µg/mL; MIC (organism code YY): ≤ 0.004 µg/mL; MIC (organism code ZZ): 16 µg/mL (≈ 19.7 µM); MIC (organism code ZZA): 0.25 µg/mL (≈ 0.308 µM)
3 | CCC1OC(=O)C(C)C(=O)C(C)C(OC2OC(C)CC(N(C)C)C2O)C(C)(OCC=Cc2ccc3ccccc3n2)CC(C)C(=O)C(C)C2NC(=O)OC12C (centres unmarked) [Example 212, R is —CH2CH═CH-(2-quinolyl)] | 0.39 (≈ 0.509 µM) | > 100 | 0.39 (≈ 0.509 µM) | 0.39 (≈ 0.509 µM) | 0.39 (≈ 0.509 µM) | > 100 | 0.39 (≈ 0.509 µM) | 0.1 (≈ 0.131 µM) | ≤ 0.005 | 0.1 (≈ 0.131 µM) | 0.05 (≈ 0.0653 µM) | 25 (≈ 32.6 µM) | 0.39 (≈ 0.509 µM) | 0.05 (≈ 0.0653 µM) | 0.39 (≈ 0.509 µM) | > 100 | 0.39 (≈ 0.509 µM) | > 100 | > 100 | 0.78 (≈ 1.02 µM) | MIC (organism code BB): 0.39 µg/mL (≈ 0.509 µM); MIC (organism code VV): 0.2 µg/mL (≈ 0.261 µM); MIC (organism code WW): 8 µg/mL (≈ 10.4 µM); MIC (organism code XX): 0.125 µg/mL (≈ 0.163 µM); MIC (organism code YY): 0.25 µg/mL (≈ 0.326 µM); MIC (organism code ZZ): 128 µg/mL (≈ 167 µM); MIC (organism code ZZA): 1 µg/mL (≈ 1.31 µM)
4 | CCC1OC(=O)C(C)C(=O)C(C)C(OC2OC(C)CC(N(C)C)C2O)C(C)(OCC=Cc2ccnc3ccccc23)CC(C)C(=O)C(C)C2NC(=O)OC12C (centres unmarked) [Example 213, R is —CH2CH═CH-(4-quinolyl)] | 0.2 (≈ 0.261 µM) | > 100 | 0.2 (≈ 0.261 µM) | 0.2 (≈ 0.261 µM) | 0.2 (≈ 0.261 µM) | > 100 | 0.2 (≈ 0.261 µM) | 0.1 (≈ 0.131 µM) | 0.05 (≈ 0.0653 µM) | 0.05 (≈ 0.0653 µM) | 0.02 (≈ 0.0261 µM) | 100 (≈ 131 µM) | 0.39 (≈ 0.509 µM) | 0.05 (≈ 0.0653 µM) | 0.2 (≈ 0.261 µM) | 100 (≈ 131 µM) | 0.39 (≈ 0.509 µM) | > 100 | > 100 | 0.39 (≈ 0.509 µM) | MIC (organism code BB): 0.2 µg/mL (≈ 0.261 µM); MIC (organism code VV): 0.39 µg/mL (≈ 0.509 µM); MIC (organism code WW): 4 µg/mL (≈ 5.22 µM); MIC (organism code XX): 0.03 µg/mL (≈ 0.0392 µM); MIC (organism code YY): 0.03 µg/mL (≈ 0.0392 µM); MIC (organism code ZZ): > 128 µg/mL; MIC (organism code ZZA): 1 µg/mL (≈ 1.31 µM)
